Results on 17 compounds are retold here after patent publication US8778881B2 (priority 2004, dated 2014).

Bridge positions count the residues as written; N and C are the ends. Square brackets hold non-standard residues; d marks the D form. Peptide text beside a SMILES is read from it. * marks the point of attachment. Ala(2-furyl) = N[C@@H](Cc1ccco1)C(=O)O; Orn(iPr) = CC(C)NCCC[C@H](N)C(=O)O; 2Pal = N[C@@H](Cc1ccccn1)C(=O)O; 4Pal = N[C@@H](Cc1ccncc1)C(=O)O; 2Thi = N[C@@H](Cc1cccs1)C(=O)O; 3Thi = N[C@@H](Cc1ccsc1)C(=O)O; Aad = N[C@@H](CCCC(=O)O)C(=O)O; Orn = NCCC[C@H](N)C(=O)O; Dab = NCC[C@H](N)C(=O)O; NHCH2CH2OH = OCCN*; NHiBu = CC(C)CN*; NHOH = ON*

The target of one assay is T1, hV1a receptor (Homo sapiens, UniProt P37288).
T1 construct: expressed in transfected cells; host or cells: HEK-293 cells (transient transfection)
T1 sequence (P37288 whole entry): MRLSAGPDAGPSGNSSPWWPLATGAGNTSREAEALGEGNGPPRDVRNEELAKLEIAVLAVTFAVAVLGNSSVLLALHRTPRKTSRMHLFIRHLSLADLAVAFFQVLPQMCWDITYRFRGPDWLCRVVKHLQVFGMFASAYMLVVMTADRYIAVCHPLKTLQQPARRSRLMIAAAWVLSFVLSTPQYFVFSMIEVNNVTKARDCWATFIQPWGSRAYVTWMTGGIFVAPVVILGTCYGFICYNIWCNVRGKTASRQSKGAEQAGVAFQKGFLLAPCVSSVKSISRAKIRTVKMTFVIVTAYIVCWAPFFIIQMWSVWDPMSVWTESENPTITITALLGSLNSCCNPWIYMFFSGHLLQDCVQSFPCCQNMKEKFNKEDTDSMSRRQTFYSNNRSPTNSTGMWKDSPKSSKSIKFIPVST
The assay can be described thus: hV1a receptor transcriptional reporter (luciferase) agonist assay in HEK-293 cells. In kind it is cell-based.
Conditions: not given
How it is done:
(§1) Agonist activity of compounds on the hV1a receptor was determined in a transcriptional reporter assay by transiently transfecting a hV1a receptor expression DNA into HEK-293 cells in concert with a reporter DNA containing intracellular calcium responsive promoter elements regulating expression of firefly luciferase. See Boss, V., Talpade, D. J., Murphy, T. J. J. Biol. Chem. 1996, May 3; 271(18), 10429-10432 for further guidance on this assay. […] To determine selectivity, compounds were tested in luciferase-based transcriptional reporter assays expressing the human oxytocin (hOT) receptor. Assays for other receptors (hV2, hV1b, rat V1a and rat V2) were also conducted.
(§2) The EC50 value given is the geometric mean expressed in nanomol/L (nM). Selectivity values are given as EC50 ratios.
For the compound `CC[C@H](C)[C@@H]1NC(=O)[C@H](Cc2ccccc2)NC(=O)[C@@H](N)CSSC[C@@H](C(=O)N2CCC[C@H]2C(=O)N[C@@H](CCCNC(C)C)C(=O)NCC(N)=O)NC(=O)[C@H](CC(N)=O)NC(=O)[C@H](CCCC(N)=O)NC1=O` [Compound 1, [Phe^2, Hgn^4, Orn (i-Pr)^8]VT] (H-CFI[Aad](NH2)NCP[Orn(iPr)]G-NH2; disulfide 1-6; N-terminus assumed), the EC50 (in general, the midpoint of the concentration-response curve) is 2.02 nM.

Staying with this assay, now noted: geometric mean; HEK-293 cells transiently transfected, 5 hours exposure, at least three independent experiments; read-out: EC50 hV1a receptor.
Take `CCNC(=O)C[C@@H]1NC(=O)[C@H]([C@@H](C)CC)NC(=O)[C@H](Cc2ccccc2)NC(=O)[C@@H](N)CSSC[C@@H](C(=O)N2CCC[C@H]2C(=O)N[C@@H](CCN)C(=O)NCC(N)=O)NC(=O)[C@H](CC(N)=O)NC1=O` [Compound 4, [Phe^2,Asn (Et)^4, Dbu^8]VT] (H-CFID(NHEt)NCP[Dab]G-NH2; disulfide 1-6): the concentration giving a half-maximal response (EC50) was 2.36 nM.

The same assay, now with this note: read-out: EC50 hV1a receptor.
As for `CC[C@H](C)[C@@H]1NC(=O)[C@H](Cc2ccco2)NC(=O)[C@@H](N)CSSC[C@@H](C(=O)N2CCC[C@H]2C(=O)N[C@@H](CCCN)C(=O)NCC(N)=O)NC(=O)[C@H](CC(N)=O)NC(=O)[C@H](CCC(N)=O)NC1=O` [Compound 32] (H-C[Ala(2-furyl)]IQNCP[Orn]G-NH2; disulfide 1-6), the EC50 is 2.64 nM.

The target of another assay is T2, human oxytocin (hOT) receptor (Homo sapiens, UniProt P30559).
T2 construct: expressed in transfected cells
T2 sequence (P30559 1-389): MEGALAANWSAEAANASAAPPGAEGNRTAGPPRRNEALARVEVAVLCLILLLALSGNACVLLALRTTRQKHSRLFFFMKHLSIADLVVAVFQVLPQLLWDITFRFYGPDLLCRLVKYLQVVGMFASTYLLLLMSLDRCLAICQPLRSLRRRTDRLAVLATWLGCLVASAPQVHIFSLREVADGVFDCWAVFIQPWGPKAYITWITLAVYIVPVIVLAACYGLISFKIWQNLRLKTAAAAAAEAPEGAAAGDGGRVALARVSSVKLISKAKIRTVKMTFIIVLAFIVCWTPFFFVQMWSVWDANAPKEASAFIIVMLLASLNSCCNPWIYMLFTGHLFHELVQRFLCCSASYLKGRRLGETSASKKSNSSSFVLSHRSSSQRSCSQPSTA
The assay can be described thus: luciferase-based transcriptional reporter assay expressing the human oxytocin (hOT) receptor, for selectivity. In kind it is cell-based.
Conditions: not given
The procedure:
as §1, §2
As to `CC[C@H](C)[C@@H]1NC(=O)[C@H](Cc2ccccc2)NC(=O)[C@@H](N)CSSC[C@@H](C(=O)N2CCC[C@H]2C(=O)N[C@@H](CCN)C(=O)NCC(N)=O)NC(=O)[C@H](CC(N)=O)NC(=O)[C@H](CCCC(N)=O)NC1=O` [Compound 11] (H-CFI[Aad](NH2)NCP[Dab]G-NH2; disulfide 1-6), the “selectivity hOT/hV1a (class symbol)” value was “+ (key: +: selective hV1a receptor agonist; EC50 hOT/hV1a ratio not determined due to very low agonist efficacy (<30% compared to AVP) at the hOT receptor)”.

Consider `CC[C@H](C)[C@@H]1NC(=O)[C@H](Cc2ccccn2)NC(=O)[C@@H](N)CSSC[C@@H](C(=O)N2CCC[C@H]2C(=O)N[C@@H](CCN)C(=O)NCC(N)=O)NC(=O)[C@H](CC(N)=O)NC(=O)[C@H](CCC(N)=O)NC1=O` [Compound 17] (H-C[2Pal]IQNCP[Dab]G-NH2; disulfide 1-6), for which the “selectivity hOT/hV1a (class symbol)” value is “+ (key: +: selective hV1a receptor agonist; EC50 hOT/hV1a ratio not determined due to very low agonist efficacy (<30% compared to AVP) at the hOT receptor)”.

Consider `CC[C@H](C)[C@@H]1NC(=O)[C@H](Cc2ccncc2)NC(=O)[C@@H](N)CSSC[C@@H](C(=O)N2CCC[C@H]2C(=O)N[C@@H](CCN)C(=O)NCC(N)=O)NC(=O)[C@H](CC(N)=O)NC(=O)[C@H](CCC(N)=O)NC1=O` [Compound 12] (H-C[4Pal]IQNCP[Dab]G-NH2; disulfide 1-6), for which the “selectivity hOT/hV1a (class symbol)” value is recorded as “+ (key: +: selective hV1a receptor agonist; EC50 hOT/hV1a ratio not determined due to very low agonist efficacy (<30% compared to AVP) at the hOT receptor)”.

Still in this assay, the particulars now being: agonist efficacy at the hOT receptor compared to AVP; ratio not determined.
With `CCNC(=O)CC[C@@H]1NC(=O)[C@H]([C@@H](C)CC)NC(=O)[C@H](Cc2ccccc2)NC(=O)[C@@H](N)CSSC[C@@H](C(=O)N2CCC[C@H]2C(=O)N[C@@H](CCCN)C(=O)NCC(N)=O)NC(=O)[C@H](CC(N)=O)NC1=O` [Compound 20] (H-CFIE(NHEt)NCP[Orn]G-NH2; disulfide 1-6; N-terminus and C-terminus assumed), the “selectivity hOT/hV1a (class symbol)” value is listed as “+ (selective hV1a receptor agonist; EC50 hOT/hV1a ratio not determined due to very low agonist efficacy (<30% compared to AVP) at the hOT receptor)”.

`CC[C@H](C)[C@@H]1NC(=O)[C@H](Cc2ccco2)NC(=O)[C@@H](N)CSSC[C@@H](C(=O)N2CCC[C@H]2C(=O)N[C@@H](CCCN)C(=O)NCC(N)=O)NC(=O)[C@H](CC(N)=O)NC(=O)[C@H](CC(N)=O)NC1=O` [Compound 38] (H-C[Ala(2-furyl)]INNCP[Orn]G-NH2; disulfide 1-6; N-terminus and C-terminus assumed): the “selectivity hOT/hV1a (class symbol)” value is given as “+ (selective hV1a receptor agonist; EC50 hOT/hV1a ratio not determined due to very low agonist efficacy (<30% compared to AVP) at the hOT receptor)”.

Regarding `CC[C@H](C)[C@@H]1NC(=O)[C@H](Cc2cccs2)NC(=O)[C@@H](N)CSSC[C@@H](C(=O)N2CCC[C@H]2C(=O)N[C@@H](CCCNC(C)C)C(=O)NCC(N)=O)NC(=O)[C@H](CC(N)=O)NC(=O)[C@H](CC(N)=O)NC1=O` [Compound 43] (H-C[2Thi]INNCP[Orn(iPr)]G-NH2; disulfide 1-6; N-terminus and C-terminus assumed), the “selectivity hOT/hV1a (class symbol)” value was “+ (selective hV1a receptor agonist; EC50 hOT/hV1a ratio not determined due to very low agonist efficacy (<30% compared to AVP) at the hOT receptor)”.

`CC[C@H](C)[C@@H]1NC(=O)[C@H](Cc2cccs2)NC(=O)[C@@H](N)CSSC[C@@H](C(=O)N2CCC[C@H]2C(=O)N[C@@H](CCCN)C(=O)NCC(N)=O)NC(=O)[C@H](CC(N)=O)NC(=O)[C@H](CC(N)=O)NC1=O` [Compound 33] (H-C[2Thi]INNCP[Orn]G-NH2; disulfide 1-6; N-terminus and C-terminus assumed): the “selectivity hOT/hV1a (class symbol)” value is recorded as “+ (selective hV1a receptor agonist; EC50 hOT/hV1a ratio not determined due to very low agonist efficacy (<30% compared to AVP) at the hOT receptor)”.

On to `CC[C@H](C)[C@@H]1NC(=O)[C@H](Cc2ccccc2)NC(=O)[C@@H](N)CSSC[C@@H](C(=O)N2CCC[C@H]2C(=O)N[C@@H](CCCN)C(=O)NCC(N)=O)NC(=O)[C@H](CC(N)=O)NC(=O)[C@H](CC(=O)NO)NC1=O` [Compound 24] (H-CFID(NHOH)NCP[Orn]G-NH2; disulfide 1-6; N-terminus and C-terminus assumed), for which the “selectivity hOT/hV1a (class symbol)” value is listed as “+ (selective hV1a receptor agonist; EC50 hOT/hV1a ratio not determined due to very low agonist efficacy (<30% compared to AVP) at the hOT receptor)”.

Turning to `CC[C@H](C)[C@@H]1NC(=O)[C@H](Cc2ccsc2)NC(=O)[C@@H](N)CSSC[C@@H](C(=O)N2CCC[C@H]2C(=O)N[C@@H](CCCN)C(=O)NCC(N)=O)NC(=O)[C@H](CC(N)=O)NC(=O)[C@H](CC(N)=O)NC1=O` [Compound 35] (H-C[3Thi]INNCP[Orn]G-NH2; disulfide 1-6; N-terminus and C-terminus assumed), the “selectivity hOT/hV1a (class symbol)” value is reported as “+ (selective hV1a receptor agonist; EC50 hOT/hV1a ratio not determined due to very low agonist efficacy (<30% compared to AVP) at the hOT receptor)”.

For `CC[C@H](C)[C@@H]1NC(=O)[C@H](Cc2ccccc2)NC(=O)[C@@H](N)CSSC[C@@H](C(=O)N2CCC[C@H]2C(=O)N[C@@H](CCCN)C(=O)NCC(N)=O)NC(=O)[C@H](CC(N)=O)NC(=O)[C@H](CCC(=O)NCC(C)C)NC1=O` [Compound 21] (H-CFIE(NHiBu)NCP[Orn]G-NH2; disulfide 1-6; N-terminus and C-terminus assumed), the “selectivity hOT/hV1a (class symbol)” value was “+ (selective hV1a receptor agonist; EC50 hOT/hV1a ratio not determined due to very low agonist efficacy (<30% compared to AVP) at the hOT receptor)”.

Take `CC[C@H](C)[C@@H]1NC(=O)[C@H](Cc2ccco2)NC(=O)[C@@H](N)CSSC[C@@H](C(=O)N2CCC[C@H]2C(=O)N[C@@H](CCN)C(=O)NCC(N)=O)NC(=O)[C@H](CC(N)=O)NC(=O)[C@H](CC(N)=O)NC1=O` [Compound 44] (H-C[Ala(2-furyl)]INNCP[Dab]G-NH2; disulfide 1-6; N-terminus and C-terminus assumed): the “selectivity hOT/hV1a (class symbol)” value was “+ (selective hV1a receptor agonist; EC50 hOT/hV1a ratio not determined due to very low agonist efficacy (<30% compared to AVP) at the hOT receptor)”.

With `CC[C@H](C)[C@@H]1NC(=O)[C@H](Cc2ccccc2)NC(=O)[C@@H](N)CSSC[C@@H](C(=O)N2CCC[C@H]2C(=O)N[C@@H](CCCN)C(=O)NCC(N)=O)NC(=O)[C@H](CC(N)=O)NC(=O)[C@H](CC(=O)NC)NC1=O` [Compound 49] (H-CFID(NHMe)NCP[Orn]G-NH2; disulfide 1-6; N-terminus and C-terminus assumed), the “selectivity hOT/hV1a (class symbol)” value is reported as “+ (selective hV1a receptor agonist; EC50 hOT/hV1a ratio not determined due to very low agonist efficacy (<30% compared to AVP) at the hOT receptor)”.

For `CC[C@H](C)[C@@H]1NC(=O)[C@H](Cc2ccccc2)NC(=O)[C@@H](N)CSSC[C@@H](C(=O)N2CCC[C@H]2C(=O)N[C@@H](CCCN)C(=O)NCC(N)=O)NC(=O)[C@H](CC(N)=O)NC(=O)[C@H](CCC(=O)NC)NC1=O` [Compound 19] (H-CFIE(NHMe)NCP[Orn]G-NH2; disulfide 1-6; N-terminus and C-terminus assumed), the “selectivity hOT/hV1a (class symbol)” value is reported as “+ (selective hV1a receptor agonist; EC50 hOT/hV1a ratio not determined due to very low agonist efficacy (<30% compared to AVP) at the hOT receptor)”.

For the compound `CC[C@H](C)[C@@H]1NC(=O)[C@H](Cc2ccccc2)NC(=O)[C@@H](N)CSSC[C@@H](C(=O)N2CCC[C@H]2C(=O)N[C@@H](CCCN)C(=O)NCC(N)=O)NC(=O)[C@H](CC(N)=O)NC(=O)[C@H](CC(=O)NCCO)NC1=O` [Compound 23] (H-CFID(NHCH2CH2OH)NCP[Orn]G-NH2; disulfide 1-6; N-terminus and C-terminus assumed), the “selectivity hOT/hV1a (class symbol)” value is recorded as “+ (selective hV1a receptor agonist; EC50 hOT/hV1a ratio not determined due to very low agonist efficacy (<30% compared to AVP) at the hOT receptor)”.
